Data set [1] in a line: Solubility: amount of PGMEA necessary for dissolving 100 mg of test compound. Type of data set: physicochemical. Conditions: for PGMEA (amount necessary for dissolving the test compound): 100 mg test compound, 20±5° C., 30 minutes with 30-second strong shaking every 5 minutes, 300 μL or less desirable. The procedure:
The thus obtained sulfonium salt compounds were used as test compounds. PGMEA was added to 100 mg of each test compound, and the amount of PGMEA necessary for dissolving the test compound therein after the elapse of 30 minutes by repeating 30-second strong shaking at 20±5° C. every 5 minutes was measured. Here, “dissolving” means to reach the state where no insoluble matter can be observed by visual inspection, specifically, means that the resultant solution is clear, or a mixture in an arbitrary ratio becomes transparent. […] In Table 1 below, sulfonium salt compounds with an amount of PGMEA of 300 μL or less were evaluated as having desirable properties.

A short description of data set [2]: Ultraviolet-visible absorption spectrum, molecular extinction coefficient at 365 nm. It is filed as physicochemical. To be noted: 1×10^−4 mol/L acetonitrile solution; reference range 50 to 2000. The procedure: A 1×10^−4 mol/L acetonitrile solution of each test compound was prepared, and the molecular extinction coefficient at 365 nm in the ultraviolet-visible absorption spectrum was measured using an ultraviolet-visible spectrophotometer (UV-2400PC, manufactured by SHIMADZU CORPORATION). […] Considering that light would be transmitted to a deep portion of a thick film, the reference range of the molecular extinction coefficient at 365 nm (i-line) was set to 50 to 2000. The sulfonium compounds falling within this range were evaluated as having desirable properties.

Regarding `O=S1(=O)[N-]S(=O)(=O)C(F)(F)C(F)(F)C1(F)F.c1ccc([S+](c2ccccc2)c2ccccc2)cc1` [C. Ex. 1, triphenylsulfonium 1,1,2,2,3,3-hexafluorotrimethylene imide, reference compound], in data set [1], the “PGMEA (amount necessary for dissolving the test compound)” value came to 300 µL. In addition, in data set [2], the “Molecular extinction coefficient (365 nm)” value is on record as 0.

As to `COc1ccc2ccc(OC)c([S+](c3ccccc3)c3ccccc3)c2c1.O=S1(=O)[N-]S(=O)(=O)C(F)(F)C(F)(F)C1(F)F` [C. Ex. 2, 1-(2,7-dimethoxynaphthyl)diphenylsulfonium 1,1,2,2,3,3-hexafluorotrimethylene sulfone imide, reference compound], in data set [1], the “PGMEA (amount necessary for dissolving the test compound)” value was found to be 1400 µL. Moreover, the “Molecular extinction coefficient (365 nm)” value in data set [2] is listed as 2010.

Regarding `CCCCOc1ccc2ccc(OCCCC)c([S+](CCCC)CCCC)c2c1.F[P-](F)(F)(F)(F)F` [C. Ex. 3, 1-(2,7-di-n-butoxynaphthyl)di-n-butylsulfonium hexafluorophosphate, reference compound], the “PGMEA (amount necessary for dissolving the test compound)” value in data set [1] stood at 1900 µL. Further, the “Solubility in PGMEA (in words)” value in data set [1] (PGMEA) was “exceptionally low solubility in PGMEA”. The “Molecular extinction coefficient (365 nm)” value in data set [2] turned out to be 490.

On to `O=S(=O)([N-]S(=O)(=O)C(F)(F)C(F)(F)C(F)(F)C(F)(F)F)C(F)(F)C(F)(F)C(F)(F)C(F)(F)F.c1ccc([S+](c2ccccc2)c2ccccc2)cc1` [C. Ex. 4, triphenylsulfonium di(1,1,2,2,3,3,4,4,4-nonafluorobutanesulfone)imide, reference compound], for which the “PGMEA (amount necessary for dissolving the test compound)” value in data set [1] worked out at 100 µL. Also, in data set [2], the “Molecular extinction coefficient (365 nm)” value was 0.

As for `CCCCOc1ccc2ccc(OCCCC)c([S+](c3ccccc3)c3ccccc3)c2c1.O=S(=O)([N-]S(=O)(=O)C(F)(F)C(F)(F)C(F)(F)C(F)(F)F)C(F)(F)C(F)(F)C(F)(F)C(F)(F)F` [C. Ex. 5, 1-(2,7-di-n-butoxynaphthyl)diphenylsulfonium di(1,1,2,2,3,3,4,4,4-nonafluorobutanesulfone)imide, reference compound], the “PGMEA (amount necessary for dissolving the test compound)” value in data set [1] was determined as 100 µL. Moreover, in data set [2], the “Molecular extinction coefficient (365 nm)” value was 2930.

Consider `CCCCOc1ccc2ccc(OCCCC)c([S+](CCCC)CCCC)c2c1.O=S(=O)([N-]S(=O)(=O)C(F)(F)C(F)(F)C(F)(F)C(F)(F)F)C(F)(F)C(F)(F)C(F)(F)C(F)(F)F` [Ex. 1, 1-(2,7-di-n-butoxynaphthyl)di-n-butylsulfonium di(1,1,2,2,3,3,4,4,4-nonafluorobutanesulfone)imide], for which the “PGMEA (amount necessary for dissolving the test compound)” value in data set [1] was 100 µL. Further, the “Molecular extinction coefficient (365 nm)” value in data set [2] is listed as 580.

Consider `CCCCOc1ccc2ccc(OCCCC)c([S+](C)C)c2c1.O=S(=O)([N-]S(=O)(=O)C(F)(F)C(F)(F)C(F)(F)C(F)(F)F)C(F)(F)C(F)(F)C(F)(F)C(F)(F)F` [Ex. 2, 1-(2,7-di-n-butoxynaphthyl)dimethylsulfonium di(1,1,2,2,3,3,4,4,4-nonafluorobutanesulfone)imide], for which the “PGMEA (amount necessary for dissolving the test compound)” value in data set [1] came to 100 µL. The “Molecular extinction coefficient (365 nm)” value in data set [2] was 480.

`CCCCOc1ccc2c(OCCCC)ccc([S+](CCCC)CCCC)c2c1.O=S(=O)([N-]S(=O)(=O)C(F)(F)C(F)(F)C(F)(F)C(F)(F)F)C(F)(F)C(F)(F)C(F)(F)C(F)(F)F` [Ex. 3, 1-(4,7-di-n-butoxynaphthyl)di-n-butylsulfonium di(1,1,2,2,3,3,4,4,4-nonafluorobutanesulfone)imide]: the “PGMEA (amount necessary for dissolving the test compound)” value in data set [1] was determined as 100 µL. Besides, the “Molecular extinction coefficient (365 nm)” value in data set [2] stood at 810.

For the compound `CCCCOc1ccc2ccc(OCCCC)c([S+](CCCC)CCCC)c2c1.O=S1(=O)[N-]S(=O)(=O)C(F)(F)C(F)(F)C1(F)F` [Ex. 4, 1-(2,7-di-n-butoxynaphthyl)di-n-butylsulfonium 1,1,2,2,3,3-hexafluorotrimethylene sulfone imide], the “PGMEA (amount necessary for dissolving the test compound)” value in data set [1] was determined as 200 µL. In addition, the “Molecular extinction coefficient (365 nm)” value in data set [2] worked out at 700.

For the compound `CCCCOc1cc(OCCCC)c2ccccc2c1[S+](CCCC)CCCC.O=S(=O)([N-]S(=O)(=O)C(F)(F)C(F)(F)C(F)(F)C(F)(F)F)C(F)(F)C(F)(F)C(F)(F)C(F)(F)F` [Ex. 5, 1-(2,4-di-n-butoxynaphthyl)di-n-butylsulfonium di(1,1,2,2,3,3,4,4,4-nonafluorobutanesulfone)imide], the “PGMEA (amount necessary for dissolving the test compound)” value in data set [1] came to 100 µL. For the same compound, in data set [2], the “Molecular extinction coefficient (365 nm)” value was determined as 100.

In the case of `CCCCOc1ccc2ccc(OCCCC)c([S+](CCCC)CCCC)c2c1.O=S(=O)([O-])C(F)(F)C(F)(F)C(F)(F)C(F)(F)F` [Ex. 6, 1-(2,7-di-n-butoxynaphthyl)di-n-butylsulfonium 1,1,2,2,3,3,4,4,4-nonafluorobutanesulfonate], in data set [1], the “PGMEA (amount necessary for dissolving the test compound)” value stood at 100 µL. In data set [2], the “Molecular extinction coefficient (365 nm)” value turned out to be 690.

As to `CCCCOc1ccc([S+](CCCC)CCCC)c2c(OCCCC)cccc12.O=S(=O)([N-]S(=O)(=O)C(F)(F)F)C(F)(F)F` [Ex. 7, 1-(4,8-di-n-butoxynaphthyl)di-n-butylsulfonium di(1,1,1-trifluoromethanesulfone)imide], the “PGMEA (amount necessary for dissolving the test compound)” value in data set [1] worked out at 100 µL. Moreover, the “Molecular extinction coefficient (365 nm)” value in data set [2] came to 570.

Regarding `CCCCOc1ccc([S+](CCCC)CCCC)c2c(OCCCC)cccc12.O=S(=O)([N-]S(=O)(=O)C(F)(F)C(F)(F)C(F)(F)C(F)(F)F)C(F)(F)C(F)(F)C(F)(F)C(F)(F)F` [Ex. 8, 1-(4,8-di-n-butoxynaphthyl)di-n-butylsulfonium di(1,1,2,2,3,3,4,4,4-nonafluorobutanesulfone)imide], the “PGMEA (amount necessary for dissolving the test compound)” value in data set [1] turned out to be 100 µL. In addition, in data set [2], the “Molecular extinction coefficient (365 nm)” value came to 620.

On to `CCCCOc1ccc2ccc(OCCCC)c([S+](CCCC)CCCC)c2c1.O=S(=O)([N-]S(=O)(=O)C(F)(F)F)C(F)(F)F` [Ex. 9, 1-(2,7-di-n-butoxynaphthyl)di-n-butylsulfonium di(1,1,1-trifluoromethanesulfone)imide], for which the “PGMEA (amount necessary for dissolving the test compound)” value in data set [1] was 200 µL. For the same compound, the “Molecular extinction coefficient (365 nm)” value in data set [2] amounted to 560.

For the compound `CCCCOc1ccc2c(OCCCC)ccc([S+](CCCC)CCCC)c2c1.O=S(=O)([N-]S(=O)(=O)C(F)(F)F)C(F)(F)F` [Ex. 10, 1-(4,7-di-n-butoxynaphthyl)di-n-butylsulfonium di(1,1,1-trifluoromethanesulfone)imide], the “PGMEA (amount necessary for dissolving the test compound)” value in data set [1] came out at 100 µL. Further, the “Molecular extinction coefficient (365 nm)” value in data set [2] is 940.

Turning to `CCCCCCCCOc1ccc2ccc(OCCCCCCCC)c([S+](C)C)c2c1.O=S(=O)([N-]S(=O)(=O)C(F)(F)F)C(F)(F)F` [Ex. 11, 1-(2,7-di-n-octoxynaphthyl)dimethylsulfonium di(1,1,1-trifluoromethanesulfone)imide], the “PGMEA (amount necessary for dissolving the test compound)” value in data set [1] was found to be 100 µL. Besides, the “Molecular extinction coefficient (365 nm)” value in data set [2] is 440.

As to `CCCCOc1ccc2ccc(OCCCC)c([S+](C(C)C)C(C)C)c2c1.O=S(=O)([N-]S(=O)(=O)C(F)(F)F)C(F)(F)F` [Ex. 12, 1-(2,7-di-n-butoxynaphthyl)diisopropyl sulfonium di(1,1,1-trifluoromethanesulfone)imide], the “PGMEA (amount necessary for dissolving the test compound)” value in data set [1] was 100 µL. Further, the “Molecular extinction coefficient (365 nm)” value in data set [2] came to 880.

With `CCCCOc1ccc2ccc(OCCCC)c([S+](C(C)C)C(C)C)c2c1.O=S(=O)([N-]S(=O)(=O)C(F)(F)C(F)(F)C(F)(F)C(F)(F)F)C(F)(F)C(F)(F)C(F)(F)C(F)(F)F` [Ex. 13, 1-(2,7-di-n-butoxynaphthyl)diisopropyl sulfonium di(1,1,2,2,3,3,4,4,4-nonafluorobutanesulfone)imide], the “PGMEA (amount necessary for dissolving the test compound)” value in data set [1] was determined as 100 µL. Also, the “Molecular extinction coefficient (365 nm)” value in data set [2] is 1030.

Source of the values: US9465288B2, “Sulfonium salt compound, method for producing the same, and photoacid generator” (DSP GOKYO FOOD & CHEMICAL CO., LTD., priority 2012, dated 2016).
